According to patent publication US11453858B2, “Human plasma-like medium” (Whitehead Institute for Biomedical Research, priority 2016, dated 2022):
One block for each molecule: values may come before it.

Experiments:
recombinant UMPS = target: T1, recombinant UMPS (Homo sapiens, UniProt P11172); assay: in vitro UMPS activity assay (LC/MS detection of OMP and UMP); format: biochemical; details: for UMP production by UMPS / abundance of OMP: increasing concentrations of inhibitor
T1 construct: The UMPS gene was amplified from the pDONR223-UMPS template using the primers JC624/JC625; made in house; host or cells: HEK-293T cells, transient transfection, anti-FLAG immunopurification
T1 sequence (P11172 2-480 limits assumed): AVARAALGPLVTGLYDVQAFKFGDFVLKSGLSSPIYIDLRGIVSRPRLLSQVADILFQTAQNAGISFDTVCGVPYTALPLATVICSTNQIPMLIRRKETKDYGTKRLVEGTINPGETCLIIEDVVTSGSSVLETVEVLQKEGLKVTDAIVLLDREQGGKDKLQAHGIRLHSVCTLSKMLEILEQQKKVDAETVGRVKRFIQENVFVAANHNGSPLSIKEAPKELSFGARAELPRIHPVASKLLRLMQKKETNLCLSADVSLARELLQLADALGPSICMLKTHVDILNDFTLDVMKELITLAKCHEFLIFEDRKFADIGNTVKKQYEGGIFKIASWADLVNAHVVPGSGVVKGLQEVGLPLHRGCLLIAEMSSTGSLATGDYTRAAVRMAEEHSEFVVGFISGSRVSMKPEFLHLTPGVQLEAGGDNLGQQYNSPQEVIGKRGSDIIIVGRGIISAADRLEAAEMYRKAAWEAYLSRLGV
Procedure: An UMPS mutant (Y37A, R155A), which was designed based on a recently deposited structure of the OPRT domain of human UMPS (Protein Data Bank entry 2WNS, chains A and B) (FIG. 12), had no activity and served as a negative control in the assay.
For metabolite profiling of LIMPS activity assay samples, reaction mixtures were extracted as described (see LIMPS activity assay) and 5 μL of each sample was injected for LC/MS analysis as described for profiling media samples, except that the mass spectrometer was operated in full scan, negative ionization mode only.
For orotate, PRPP, OMP, and UMP in UMPS assay samples, all settings as described for the tSIM scan used for FdUMP and FUMP were identical except that the maximum integration time was 200 msec, and the target masses were 155.0088 (corresponding to orotate), 323.0286 (corresponding to UMP), 367.0184 (corresponding to OMP), and 388.9445 (corresponding to PRPP).
For transfection of HEK-293 T cells, 4 million cells were plated in 15 cm culture dishes. After 24 hr, cells were transfected with 15 μg of pLJC2-UMPS-3×FLAG or pLJC2-UMPS (Y37A, R155A)-3×FLAG using the polyethylenimine method (Boussif et al., 1995). After 48 hr, cells were rinsed one time with ice-cold PBS and then immediately lysed with lysis buffer (1% Triton X-100, 40 mM Tris-HCl pH 7.5, 100 mM NaCl, 5 mM MgCl2, 1 tablet of EDTA-free protease inhibitor (Roche 11580800; per 25 mL buffer), 1 tablet of PhosStop phosphatase inhibitor (Roche 04906845001; per 10 mL buffer)). The cell lysates were cleared by centrifugation at 21130 g for 10 min at 4° C. For anti-FLAG immunoprecipitation, the FLAG-M2 affinity gel (Sigma A2220) was washed 3 times in lysis buffer. For each experiment, 500 μL of a 50/50 slurry of the affinity gel was then added to a pool of clarified lysates collected from 5 individual 15 cm culture dishes, and incubated with rotation for 3 hr at 4° C. Following immunoprecipitation, the beads were washed 2 times in lysis buffer and 3 times with lysis buffer containing 500 mM NaCl. Recombinant protein was then eluted in lysis buffer containing 1 mg/mL FLAG peptide for 1 hr at 4° C. The eluent was isolated by centrifugation at 100 g for 4 min at 4° C. (BioRad micro bio-spin column 732-6204), buffer exchanged (Amicon Ultra 30K NMWL) against 20 volumes of storage buffer (40 mM Tris-HCl pH 7.5, 100 mM NaCl, 1.5 mM dTT), mixed with glycerol (final concentration 15% v/v), and finally snap-frozen with liquid nitrogen and stored at −80° C. Protein samples were quantified using Bradford reagent and a BSA standard, and verified by 12% SDS-PAGE.
Reactions of each purified LIMPS variant (20-40 nM enzyme) with orotate (100 μM) and PRPP (300 μM) were carried out at 37° C. in 20 mM Tris-HCl pH 7.5, 5 mM Na2HPO4, […], 2 mM 2 mM dTT, 100 μM EDTA (adapted from (Han et al., 1995)), and various concentrations of putative inhibitors in a total volume of 100 μL. Following 20 min incubation, a 15 μL aliquot of the reaction mixture was removed and immediately added to 85 μL ice-cold 80% methanol for metabolite extraction, vortexed for 5 min, and centrifuged at 21130 g for 1 min at 4° C.
Stock solutions of 6-azauridine, 6-aza-UMP, 9-methyluric acid, allantoin, allopurinol, and uric acid were made up fresh at 200 mM in 1 M NaOH, and upon appropriate dilutions, had little effect on reaction pH.
An OMP chemical standard was not available.

K562 cells = assay: metabolite profiling of K562 cells (intracellular pyrimidine pathway metabolites); format: cell-based, human
Procedure: To determine which component(s) of HPLM^+dIFS affects the de novo pyrimidine synthesis pathway, K562 cells were cultured in HPLM^+dIFS derivatives lacking: (1) acetone, creatine, creatinine, formate, fructose, galactose, glutathione, glycerol, and hypoxanthine; (2) non-proteinogenic amino acids (8 metabolites); (3) water-soluble acids (8 metabolites); (4) urea; or (5) uric acid (FIG. 5A). […] HPLM^+dIFS contains uric acid at […], a concentration that is 40- and at least 500-fold greater than that of RPMI^+IFS and RPMI^+dIFS, respectively (FIG. 5C), and, importantly, its intracellular concentration reflects that of the corresponding culture medium (FIG. 5D).
To determine whether uric acid might cause inhibition of UMPS, an established UMPS inhibitor was studied to see if it had similar effects on the de novo pyrimidine biosynthesis pathway as uric acid in disclosed cells. […] Using LC/MS-based metabolite profiling, a species whose mass-to-charge ratio (m/z) matched the predicted m/z of allopurinol ribonucleotide was detected, and the magnitude correlated with the concentration of allopurinol in the media (FIG. 11D). Importantly, this species could be distinguished from its isomer, IMP, by their differing chromatographic retention times. […] However, a metabolite peak consistent with a putative uric acid ribonucleotide was not detected.
(§1) After 24 hr incubation, cells were centrifuged at 250 g for 5 min, resuspended in 1 mL ice-cold 0.9% sterile NaCl, and again centrifuged at 250 g for 5 min at 4° C. Metabolites were extracted in a 1 mL solution of 80% methanol containing 10 ng/mL phenylalanine-d8 as an internal standard. Following a 10 min vortex and centrifugation for […] 10 min at 4° C., samples were dried under nitrogen gas. Dried samples were stored at −80° C. and then resuspended in 100 μL water; 4 μL of each cell sample was injected for LC/MS analysis as described for profiling media samples. For all experiments, an additional culture replicate was set up identically and used for measuring cell number and volume, which were each measured using a Beckman Z2 Coulter Counter with a diameter setting of 8-30 μm.

[1] = tested on: certain cancer cell lines; details: Schwartz and Handschumacher, 1979; cited from earlier work
ODC domain of UMPS = target: T2, ODC domain of UMPS (Homo sapiens, UniProt P11172); details: literature; cited from earlier work
T2 sequence (P11172 1-480): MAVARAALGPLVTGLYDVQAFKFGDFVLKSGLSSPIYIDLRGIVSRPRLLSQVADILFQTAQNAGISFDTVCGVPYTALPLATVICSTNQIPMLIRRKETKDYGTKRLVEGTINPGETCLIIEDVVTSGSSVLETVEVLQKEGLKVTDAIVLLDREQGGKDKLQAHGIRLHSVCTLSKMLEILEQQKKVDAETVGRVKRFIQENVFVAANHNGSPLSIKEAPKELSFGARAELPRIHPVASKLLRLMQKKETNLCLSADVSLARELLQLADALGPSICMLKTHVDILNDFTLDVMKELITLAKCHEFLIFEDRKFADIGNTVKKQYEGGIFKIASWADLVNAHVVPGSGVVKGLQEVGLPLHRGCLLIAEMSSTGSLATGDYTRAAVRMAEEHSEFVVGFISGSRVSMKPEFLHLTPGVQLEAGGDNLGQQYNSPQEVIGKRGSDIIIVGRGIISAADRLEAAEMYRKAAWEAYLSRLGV

NOMO1 cells [2] = assay: drug treatment assay, cell viability by Cell Titer-Glo; format: cell-based, human
Procedure: After 24 hr incubation, cells were treated with 5-FU (100 nM, 1 μM, 10 μM, 100 μM, or 1 mM) or doxorubicin (1.95 nM, 7.81 nM, 31.25 nM, 125 nM, or 500 nM). All wells, including untreated controls, contained 0.5% DMSO. Following addition of drugs, plates were gently shaken for 2 min. After 4 days of treatment, 200 μL from each well was transferred to a white 96-well plate (Greiner) and cell viability was assessed with Cell Titer-Glo (Promega). Luminescence was measured with a SpectraMax M5 Plate Reader (Molecular Devices) and normalized to an untreated control.
(§2) Dose-response values were plotted in GraphPad Prism and fit using a One Site-Fit log IC50 equation.

SW620 cells = assay: drug treatment assay, cell viability by Cell-Titer Glo; format: cell-based, human; details: removal of uric acid from HPLM+dIFS
Procedure: SW620 cells were seeded at a density of 2000 cells/well and allowed to attach for 24 hr. 5-FU and doxorubicin were prepared in DMSO and dispensed using an HP D300 compound dispenser. Cell viability was assessed with Cell-Titer Glo at 4 days following treatment and luminescence was measured as described above.
as §2

[3] = tested on: six hematological cancer cell lines; assay: metabolite profiling of six hematological cancer cell lines; format: cell-based, human; details: 350 μM uric acid added to RPMI+IFS, compared to RPMI+IFS
Procedure: To test the hypothesis that culturing cells in a medium that better mimics the metabolic composition of human plasma alters cellular metabolism compared to that in established media, the metabolite profiles of cells cultured in HPLM^+dIFS were compared to those in RPMI^+IFS or RPMI^+dIFS.
as §1

NOMO1 cells [4] = assay: 5-FU treatment for LC/MS (intracellular 5-FU, FdUMP, FUMP); details: 20 μM 5-FU, 24 hr

Compound: O=c1[nH]cnc2c1cnn2C1O[C@H](COP(=O)(O)O)[C@@H](O)[C@H]1O (stereo partly drawn) [allopurinol ribonucleotide]
inhibition of the ODC domain of UMPS (ODC domain of UMPS): competitively inhibit the ODC domain of UMPS

Compound: O=c1cnn([C@@H]2O[C@H](COP(=O)(O)O)[C@@H](O)[C@H]2O)c(=O)[nH]1 [6-aza-UMP]
UMP levels relative to reactions containing vehicle (recombinant UMPS; 6-aza-UMP at 50 μM): ~3%
UMP production by UMPS (recombinant UMPS): dose-dependently decreased UMP production by UMPS
abundance of OMP (recombinant UMPS): dramatically increased the abundance of OMP
inhibition of the ODC domain of UMPS (ODC domain of UMPS): competitively inhibit the ODC domain of UMPS

Compound: COc1cccc2c1C(=O)c1c(O)c3c(c(O)c1C2=O)C[C@@](O)(C(=O)CO)C[C@@H]3O[C@H]1C[C@H](N)[C@H](O)[C@H](C)O1 [doxorubicin]
potency of doxorubicin (NOMO1 cells [2]; culture in HPLM+dIFS compared to RPMI+IFS and RPMI+dIFS): without affecting the potency of doxorubicin
doxorubicin sensitivity (NOMO1 cells [2]; removal of uric acid from HPLM+dIFS): without affecting doxorubicin sensitivity
doxorubicin sensitivity (SW620 cells): did not influence doxorubicin sensitivity

Compound: O=c1[nH]cc(F)c(=O)[nH]1 [5-FU, 5-Fluorouracil]
FUMP levels (NOMO1 cells [4]; uric acid-containing HPLM+dIFS): below the limit of detection
intracellular abundances of FdUMP and 5-FU (NOMO1 cells [4]; uric acid-containing HPLM+dIFS vs lacking uric acid): little effect

More lines, main results first:

direct inhibition of UMPS (recombinant UMPS): did not directly inhibit UMPS
Compound: NC(=O)NC1NC(=O)NC1=O (stereo not drawn) [allantoin]

direct inhibition of UMPS (recombinant UMPS): did not directly inhibit UMPS
Compound: Cn1c(=O)[nH]c2c(=O)[nH]c(=O)[nH]c21 [9-methyluric acid]
levels of orotate, orotidine, or the other intermediates in the de novo pyrimidine biosynthesis pathway (K562 cells; 350 μM in HPLM+dIFS, compared to HPLM+dIFS lacking uric acid): did not alter the levels

direct inhibition of UMPS (recombinant UMPS): did not directly inhibit UMPS
Compound: Oc1ncnc2[nH]ncc12 [allopurinol]
levels of carbamoylaspartate, dihydroorotate, orotate, orotidine, and OMP (K562 cells; HPLM+dIFS lacking uric acid, increasing concentrations of allopurinol): dose-dependently increased the levels
decrease in abundance of UTP (K562 cells; highest tested concentration of allopurinol): ~30%
sensitivity of cancer cell lines to 5-FU [1]: reduces the sensitivity of certain cancer cell lines to 5-FU

direct inhibition of UMPS (recombinant UMPS): did not directly inhibit UMPS
Compound: O=c1cnn([C@@H]2O[C@H](CO)[C@@H](O)[C@H]2O)c(=O)[nH]1 [6-azauridine]

abundance of OMP (recombinant UMPS): increased OMP
UMP levels relative to reactions containing vehicle (recombinant UMPS; uric acid at 1 mM): ~30%
Compound: O=c1[nH]c(=O)c2[nH]c(=O)[nH]c2[nH]1 [uric acid]
direct inhibition of UMPS (recombinant UMPS): direct inhibitor of the ODC domain of UMPS
UMP production by UMPS (recombinant UMPS): dose-dependently inhibited UMP production by UMPS
orotate and orotidine abundances (K562 cells; HPLM+dIFS containing increasing concentrations of uric acid): dose-dependently increased orotate and orotidine abundances
orotate and orotidine levels on removal of the component from HPLM+dIFS (K562 cells; dropout formulations of HPLM+dIFS): reduced orotate and orotidine levels to those of cells cultured in RPMI
accumulation of OMP (K562 cells; highest tested concentration (700 μM)): led to a detectable accumulation of OMP
UTP abundance [3]: cell line-dependent effects on UTP abundance
orotate and orotidine levels [3]: greatly boosted orotate and orotidine levels
